What was measured:
Format in all cases: in vivo
[1] = tested on: velvetleaf; assay: Test Example 3: herbicidal effects in soil treatment; settings: dose 3.2 g/a
Summary of the method: (§1)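 Seeds were sown in sterilized diluvial soil and covered with about 1.5 cm of soil. Compounds, formulated as emulsifiable concentrates and diluted with water, were sprayed evenly over the soil surface at set doses in g/a. Herbicidal effect was scored on a rating scale three weeks later.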

[2] = tested on: giant foxtail; assay: as above; settings: dose 3.2 g/a
Summary of the method: as §1

[3] = tested on: barnyardgrass; assay: as above; settings: dose 3.2 g/a
Summary of the method: as §1

[4] = tested on: common ragweed; assay: as above; settings: dose 3.2 g/a
Summary of the method: as §1

[5] = tested on: water foxtail; assay: as above; settings: dose 3.2 g/a
Summary of the method: as §1

[6] = tested on: common lambsquater; assay: as above; settings: dose 3.2 g/a
Summary of the method: as §1

[7] = tested on: posumbu knotweed; assay: as above; settings: dose 3.2 g/a
Summary of the method: as §1

[8] = tested on: Italian ryegrass; assay: as above; settings: dose 3.2 g/a
Summary of the method: as §1

[9] = tested on: beadstraw; assay: as above; settings: dose 3.2 g/a
Summary of the method: as §1

[10] = tested on: redroot pigweed; assay: as above; settings: dose 3.2 g/a
Summary of the method: as §1

[11] = tested on: large crabgrass; assay: as above; settings: dose 3.2 g/a
Summary of the method: as §1

[12] = tested on: common chickweed; assay: as above; settings: dose 3.2 g/a
Summary of the method: as §1

[13] = tested on: barnyardgrass; assay: Test Example 1: herbicidal effects in preemergence treatment under submerged conditions; settings: dose 2.52 g/a
Summary of the method: (§2)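 Scoring 0 (<5% mortality) to 5 (≥90%) was done three weeks after preemergence application to the water surface of submerged (4 cm) alluvial soil, doses given as g per are. Weeds were seeded and 2.5-leaf rice transplanted on the treatment day; greenhouse at 25–30 °C.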

[14] = tested on: bulrush; assay: as above; settings: dose 2.52 g/a
Summary of the method: as §2

[15] = tested on: ducksalad; assay: as above; settings: dose 2.52 g/a
Summary of the method: as §2

[16] = tested on: barnyardgrass; assay: Test Example 2: herbicidal effects during the vegetation period under submerged conditions; settings: treatment during the vegetation period under submerged conditions; dose 2.52 g/a
Summary of the method: (§3)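 Barnyardgrass, bulrush and ducksalad were co-sown in alluvial soil flooded to 4 cm and grown in a greenhouse at 25 to 30° C. At the 1- or 2-leaf stage, water-diluted emulsifiable concentrates went onto the water surface at set doses (g/a). Herbicidal effect was scored three weeks later on a graded scale.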

[17] = tested on: bulrush; assay: as above; settings: treatment during the vegetation period under submerged conditions; dose 2.52 g/a
Summary of the method: as §3

[18] = tested on: ducksalad; assay: as above; settings: treatment during the vegetation period under submerged conditions; dose 2.52 g/a
Summary of the method: as §3

[19] = tested on: velvetleaf; assay: Test Example 4: herbicidal effect in foliage treatment; settings: dose 3.2 g/a, three weeks after application
Summary of the method: (§4)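 Sowing in sterilized diluvial soil, ~1.5 cm cover; growth 14 d, 25–30° C greenhouse; foliar spray of water-diluted EC at predetermined g/a; scoring 3 wk later on graded scale.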

[20] = tested on: giant foxtail; assay: as above; settings: dose 3.2 g/a, three weeks after application
Summary of the method: as §4

[21] = tested on: barnyardgrass; assay: as above; settings: dose 3.2 g/a, three weeks after application
Summary of the method: as §4

[22] = tested on: common ragweed; assay: as above; settings: dose 3.2 g/a, three weeks after application
Summary of the method: as §4

[23] = tested on: water foxtail; assay: as above; settings: dose 3.2 g/a, three weeks after application
Summary of the method: as §4

[24] = tested on: common lambsquater; assay: as above; settings: dose 3.2 g/a, three weeks after application
Summary of the method: as §4

[25] = tested on: posumbu knotweed; assay: as above; settings: dose 3.2 g/a, three weeks after application
Summary of the method: as §4

[26] = tested on: Italian ryegrass; assay: as above; settings: dose 3.2 g/a, three weeks after application
Summary of the method: as §4

[27] = tested on: beadstraw; assay: as above; settings: dose 3.2 g/a, three weeks after application
Summary of the method: as §4

[28] = tested on: redroot pigweed; assay: as above; settings: dose 3.2 g/a, three weeks after application
Summary of the method: as §4

[29] = tested on: large crabgrass; assay: as above; settings: dose 3.2 g/a, three weeks after application
Summary of the method: as §4

[30] = tested on: common chickweed; assay: as above; settings: dose 3.2 g/a, three weeks after application
Summary of the method: as §4

[31] = tested on: transplanted rice; assay: Test Example 1: preemergence treatment under submerged conditions, effect on crop; settings: dose 2.52 g/a
Summary of the method: as §2

Cn1nc(Cl)cc1C1(C)CC(=O)N(Cc2ccccc2NS(=O)(=O)C(F)(F)F)CO1 (stereo not shown) [II-59]
I: velvetleaf, herbicidal effect (evaluation scale 0-5) [1]: 1 (mortality of at least 5% and less than 20%) | E: giant foxtail, herbicidal effect (evaluation scale 0-5) [2]: 4 (mortality of at least 70% and less than 90%) | A: barnyardgrass, herbicidal effect (evaluation scale 0-5) [3]: 4 (mortality of at least 70% and less than 90%) | J: common ragweed, herbicidal effect (evaluation scale 0-5) [4]: 3 (mortality of at least 40% and less than 70%) | G: water foxtail, herbicidal effect (evaluation scale 0-5) [5]: 0 (mortality of less than 5% (almost ineffective)) | L: common lambsquater, herbicidal effect (evaluation scale 0-5) [6]: 0 (mortality of less than 5% (almost ineffective)) | M: posumbu knotweed, herbicidal effect (evaluation scale 0-5) [7]: 1 (mortality of at least 5% and less than 20%) | H: Italian ryegrass, herbicidal effect (evaluation scale 0-5) [8]: 5 (mortality of 90% or above (nearly complete death)) | O: beadstraw, herbicidal effect (evaluation scale 0-5) [9]: 1 (mortality of at least 5% and less than 20%) | K: redroot pigweed, herbicidal effect (evaluation scale 0-5) [10]: 3 (mortality of at least 40% and less than 70%) | D: large crabgrass, herbicidal effect (evaluation scale 0-5) [11]: 1 (mortality of at least 5% and less than 20%) | N: common chickweed, herbicidal effect (evaluation scale 0-5) [12]: 4 (mortality of at least 70% and less than 90%) | A: barnyardgrass, herbicidal effect (evaluation scale 0-5) [13]: 5 (mortality of 90% or above (nearly complete death)) | B: bulrush, herbicidal effect (evaluation scale 0-5) [14]: 5 (mortality of 90% or above (nearly complete death)) | C: ducksalad, herbicidal effect (evaluation scale 0-5) [15]: 5 (mortality of 90% or above (nearly complete death)) | A: barnyardgrass, herbicidal effect (evaluation scale 0-5) [16]: 5 (mortality of 90% or above (nearly complete death)) | B: bulrush, herbicidal effect (evaluation scale 0-5) [17]: 5 (mortality of 90% or above (nearly complete death)) | C: ducksalad, herbicidal effect (evaluation scale 0-5) [18]: 5 (mortality of 90% or above (nearly complete death)) | I: velvetleaf, herbicidal effect [19]: 2 (mortality of at least 20% and less than 40%) | E: giant foxtail, herbicidal effect [20]: 1 (mortality of at least 5% and less than 20%) | A: barnyardgrass, herbicidal effect [21]: 5 (mortality of 90% or above (nearly complete death)) | J: common ragweed, herbicidal effect [22]: 4 (mortality of at least 70% and less than 90%) | G: water foxtail, herbicidal effect [23]: 5 (mortality of 90% or above (nearly complete death)) | L: common lambsquater, herbicidal effect [24]: 1 (mortality of at least 5% and less than 20%) | M: posumbu knotweed, herbicidal effect [25]: 1 (mortality of at least 5% and less than 20%) | H: Italian ryegrass, herbicidal effect [26]: 1 (mortality of at least 5% and less than 20%) | O: beadstraw, herbicidal effect [27]: 5 (mortality of 90% or above (nearly complete death)) | K: redroot pigweed, herbicidal effect [28]: 0 (mortality of less than 5% (almost ineffective)) | D: large crabgrass, herbicidal effect [29]: 3 (mortality of at least 40% and less than 70%) | N: common chickweed, herbicidal effect [30]: 4 (mortality of at least 70% and less than 90%) | a: transplanted rice, effect on crop (evaluation scale 0-5) [31]: 0 (mortality of less than 5% (almost ineffective))

Reference: patent US20120029187A1, “HALOALKYLSULFONANILIDE DERIVATIVE” (Nissan Chemical Industries, Ltd., priority 2009, published 2012)
